What follows are compounds tested against human full-length MKNK1 (Homo sapiens (Human), UniProt Q9BUB5, T344D) (assay: MKNK1 kinase high ATP assay (TR-FRET)). Conditions: high ATP (2 mM), 15 min preincubation with enzyme; read-out: MKNK1 IC50.
Format: biochemical
Procedure: MKNK1 Kinase High ATP Assay
MKNK1-inhibitory activity at high ATP of compounds of the present invention after their preincubation with MKNK1 was quantified employing the TR-FRET-based MKNK1 high ATP assay as described in the following paragraphs.
A recombinant fusion protein of Glutathione-S-Transferase (GST, N-terminally) and human full-length MKNK1 (amino acids 1-424 and T344D of accession number BAA 19885.1), expressed in insect cells using baculovirus expression system and purified via glutathione sepharose affinity chromatography, was purchased from Carna Biosciences (product no 02-145) and used as enzyme. As substrate for the kinase reaction the biotinylated peptide biotin-Ahx-IKKRKLTRRKSLKG (SEQ ID NO: 1, C-terminus in amide form) was used, which can be purchased e.g. from the company Biosyntan (Berlin-Buch, Germany).
For the assay 50 nL of a 100 fold concentrated solution of the test compound in DMSO was pipetted into a black low volume 384 well microtiter plate (Greiner Bio-One, Frickenhausen, Germany), 2 μL of a solution of MKNK1 in aqueous assay buffer [50 mM HEPES pH 7.5, 5 mM MgCl2, 1.0 mM dithiothreitol, 0.005% (v/v) Nonidet-P40 (Sigma)] was added and the mixture was incubated for 15 min at 22° C. to allow pre-binding of the test compounds to the enzyme before the start of the kinase reaction. Then the kinase reaction was started by the addition of 3 μL of a solution of adenosine-tri-phosphate (ATP, 3.3 mM=>final conc. in the 5 μL assay volume is 2 mM) and substrate (0.1 μM=>final conc. in the 5 μL assay volume is 0.06 μM) in assay buffer and the resulting mixture was incubated for a reaction time of 30 min at 22° C. The concentration of MKNK1 was adjusted depending of the activity of the enzyme lot and was chosen appropriate to have the assay in the linear range, typical concentrations were in the range of 0.003 μg/mL. The reaction was stopped by the addition of 5 μL of a solution of TR-FRET detection reagents (5 nM streptavidine-XL665 [Cisbio Bioassays, Codolet, France] and 1 nM anti-ribosomal protein S6 (pSer236)-antibody from Invitrogen [#44921G] and 1 nM LANCE EU-W1024 labeled ProteinG [Perkin-Elmer, product no. AD0071]) in an aqueous EDTA-solution (100 mM EDTA, 0.1% (w/v) bovine serum albumin in 50 mM HEPES pH 7.5).
The resulting mixture was incubated for 1 h at 22° C. to allow the formation of complex between the phosphorylated biotinylated peptide and the detection reagents. Subsequently the amount of phosphorylated substrate was evaluated by measurement of the resonance energy transfer from the Eu-chelate to the streptavidine-XL. Therefore, the fluorescence emissions at 620 nm and 665 nm after excitation at 350 nm were measured in a TR-FRET reader, e.g. a Rubystar (BMG Labtechnologies, Offenburg, Germany) or a Viewlux (Perkin-Elmer). The ratio of the emissions at 665 nm and at […] was taken as the measure for the amount of phosphorylated substrate. The data were normalised (enzyme reaction without inhibitor=0% inhibition, all other assay components but no enzyme=100% inhibition).

Chain of human full-length MKNK1 (Q9BUB5 other isoform, or with tags, fused parts or gaps T344D): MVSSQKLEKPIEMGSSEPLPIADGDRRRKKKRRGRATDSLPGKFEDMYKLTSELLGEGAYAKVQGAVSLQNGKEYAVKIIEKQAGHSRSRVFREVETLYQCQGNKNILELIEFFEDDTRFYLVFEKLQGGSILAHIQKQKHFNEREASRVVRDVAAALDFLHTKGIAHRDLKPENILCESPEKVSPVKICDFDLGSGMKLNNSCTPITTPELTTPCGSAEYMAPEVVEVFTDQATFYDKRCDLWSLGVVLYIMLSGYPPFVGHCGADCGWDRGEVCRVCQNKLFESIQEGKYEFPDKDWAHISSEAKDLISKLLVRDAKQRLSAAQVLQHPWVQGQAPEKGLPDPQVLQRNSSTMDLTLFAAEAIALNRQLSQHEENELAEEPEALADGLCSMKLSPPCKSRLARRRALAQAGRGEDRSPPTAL

SMILES	IC50 [nM]
CN(C)C(=O)C1CCc2c(sc3ncnc(Nc4ccn5nccc5c4)c23)C1 (racemic) [Example 1, (RS) N,N-Dimethyl-4-(pyrazolo[1,5-a]pyridin-5-ylamino)-5,6,7,8-tetrahydro[1]benzothieno[2,3-d]pyrimidine-7-carboxamide]	64
O=C(O)[C@H]1CCc2c(sc3ncnc(Nc4ccn5nccc5c4)c23)C1 [Example 2, (7S)-4-(Pyrazolo[1,5-a]pyridin-5-ylamino)-5,6,7,8-tetrahydro[1]benzothieno[2,3-d]pyrimidine-7-carboxylic acid]	707
C[C@@H]1COCCN1C(=O)[C@H]1CCc2c(sc3ncnc(Nc4ccn5nccc5c4)c23)C1 [Example 3, [(3R)-3-Methylmorpholin-4-yl][(7S)-4-(pyrazolo[1,5-a]pyridin-5-ylamino)-5,6,7,8-tetrahydro[1]benzothieno[2,3-d]pyrimidin-7-yl]methanone]	80
CN(C)CCN(C)C(=O)[C@H]1CCc2c(sc3ncnc(Nc4ccn5nccc5c4)c23)C1 [Example 4, (7S)—N-[2-(Dimethylamino)ethyl]-N-methyl-4-(pyrazolo[1,5-a]pyridin-5-ylamino)-5,6,7,8-tetrahydro[1]benzothieno[2,3-d]pyrimidine-7-carboxamide]	21
C[C@@H]1CN(C(=O)[C@H]2CCc3c(sc4ncnc(Nc5ccn6nccc6c5)c34)C2)C[C@H](C)O1 [Example 5, [(2R,6S)-2,6-Dimethylmorpholin-4-yl][(7S)-4-(pyrazolo[1,5-a]pyridin-5-ylamino)-5,6,7,8-tetrahydro[1]benzothieno[2,3-d]pyrimidin-7-yl]methanone]	21
CN(C)[C@@H]1CCN(C(=O)[C@H]2CCc3c(sc4ncnc(Nc5ccn6nccc6c5)c34)C2)C1 [Example 6, [(3R)-3-(Dimethylamino)pyrrolidin-1-yl][(7S)-4-(pyrazolo[1,5-a]pyridin-5-ylamino)-5,6,7,8-tetrahydro[1]benzothieno[2,3-d]pyrimidin-7-yl]methanone]	12
C[C@H]1COCCN1C(=O)[C@H]1CCc2c(sc3ncnc(Nc4ccn5nccc5c4)c23)C1 [Example 7, [(3S)-3-Methylmorpholin-4-yl][(7S)-4-(pyrazolo[1,5-a]pyridin-5-ylamino)-5,6,7,8-tetrahydro[1]benzothieno[2,3-d]pyrimidin-7-yl]methanone]	65
COCCN(C)C(=O)[C@H]1CCc2c(sc3ncnc(Nc4ccn5nccc5c4)c23)C1 [Example 8, (7S)—N-(2-Methoxyethyl)-N-methyl-4-(pyrazolo[1,5-a]pyridin-5-ylamino)-5,6,7,8-tetrahydro[1]benzothieno[2,3-d]pyrimidine-7-carboxamide]	42
C[C@H]1CN(C(=O)[C@H]2CCc3c(sc4ncnc(Nc5ccn6nccc6c5)c34)C2)C[C@H](C)O1 [Example 9, [(2S,6S)-2,6-Dimethylmorpholin-4-yl][(7S)-4-(pyrazolo[1,5-a]pyridin-5-ylamino)-5,6,7,8-tetrahydro[1]benzothieno[2,3-d]pyrimidin-7-yl]methanone]	49
C[C@@H]1CN(C(=O)[C@H]2CCc3c(sc4ncnc(Nc5ccn6nccc6c5)c34)C2)C[C@@H](C)O1 [Example 10, [(2R,6R)-2,6-Dimethylmorpholin-4-yl][(7S)-4-(pyrazolo[1,5-a]pyridin-5-ylamino)-5,6,7,8-tetrahydro[1]benzothieno[2,3-d]pyrimidin-7-yl]methanone]	33
O=C([C@H]1CCc2c(sc3ncnc(Nc4ccn5nccc5c4)c23)C1)N1CCOCC1 [Example 11, Morpholin-4-yl[(7S)-4-(pyrazolo[1,5-a]pyridin-5-ylamino)-5,6,7,8-tetrahydro[1]benzothieno[2,3-d]pyrimidin-7-yl]methanone]	62
O=C([C@H]1CCc2c(sc3ncnc(Nc4ccn5nccc5c4)c23)C1)N1CC2CC2C1 (stereo partly drawn) [Example 12, 3-Azabicyclo[3.1.0]hex-3-yl[(7S)-4-(pyrazolo[1,5-a]pyridin-5-ylamino)-5,6,7,8-tetrahydro[1]benzothieno[2,3-d]pyrimidin-7-yl]methanone]	24
C[C@@H]1COC[C@H](C)N1C(=O)[C@H]1CCc2c(sc3ncnc(Nc4ccn5nccc5c4)c23)C1 [Example 13, [(3R,5S)-3,5-Dimethylmorpholin-4-yl][(7S)-4-(pyrazolo[1,5-a]pyridin-5-ylamino)-5,6,7,8-tetrahydro[1]benzothieno[2,3-d]pyrimidin-7-yl]methanone]	17
C[C@@H]1COC[C@@H](C)N1C(=O)[C@H]1CCc2c(sc3ncnc(Nc4ccn5nccc5c4)c23)C1 [Example 14, [(3R,5R)-3,5-Dimethylmorpholin-4-yl][(7S)-4-(pyrazolo[1,5-a]pyridin-5-ylamino)-5,6,7,8-tetrahydro[1]benzothieno[2,3-d]pyrimidin-7-yl]methanone]	7
CC(C)N(C)C(=O)[C@H]1CCc2c(sc3ncnc(Nc4ccn5nccc5c4)c23)C1 [Example 16, (7S)—N-Isopropyl-N-methyl-4-(pyrazolo[1,5-a]pyridin-5-ylamino)-5,6,7,8-tetrahydro[1]benzothieno[2,3-d]pyrimidine-7-carboxamide]	19
CN(C)C(=O)[C@H]1CCc2c(sc3ncnc(Nc4ccn5nccc5c4)c23)C1 [Example 17, (7S)—N,N-Dimethyl-4-(pyrazolo[1,5-a]pyridin-5-ylamino)-5,6,7,8-tetrahydro[1]benzothieno[2,3-d]pyrimidine-7-carboxamide]	33
CN(CC(F)F)C(=O)[C@H]1CCc2c(sc3ncnc(Nc4ccn5nccc5c4)c23)C1 [Example 18, (7S)—N-(2,2-Difluoroethyl)-N-methyl-4-(pyrazolo[1,5-a]pyridin-5-ylamino)-5,6,7,8-tetrahydro[1]benzothieno[2,3-d]pyrimidine-7-carboxamide]	19
CN(CC(C)(C)O)C(=O)[C@H]1CCc2c(sc3ncnc(Nc4ccn5nccc5c4)c23)C1 [Example 19, (7S)—N-(2-Hydroxy-2-methylpropyl)-N-methyl-4-(pyrazolo[1,5-a]pyridin-5-ylamino)-5,6,7,8-tetrahydro[1]benzothieno[2,3-d]pyrimidine-7-carboxamide]	21
O=C([C@H]1CCc2c(sc3ncnc(Nc4ccn5nccc5c4)c23)C1)N1CCC1 [Example 20, Azetidin-1-yl[(7S)-4-(pyrazolo[1,5-a]pyridin-5-ylamino)-5,6,7,8-tetrahydro[1]benzothieno[2,3-d]pyrimidin-7-yl]methanone]	26
CCN(CCO)C(=O)[C@H]1CCc2c(sc3ncnc(Nc4ccn5nccc5c4)c23)C1 [Example 21, (7S)—N-Ethyl-N-(2-hydroxyethyl)-4-(pyrazolo[1,5-a]pyridin-5-ylamino)-5,6,7,8-tetrahydro[1]benzothieno[2,3-d]pyrimidine-7-carboxamide]	19
N#CC1CN(C(=O)[C@H]2CCc3c(sc4ncnc(Nc5ccn6nccc6c5)c34)C2)C1 [Example 22, 1-{[(7S)-4-(Pyrazolo[1,5-a]pyridin-5-ylamino)-5,6,7,8-tetrahydro[1]benzothieno[2,3-d]pyrimidin-7-yl]carbonyl}azetidine-3-carbonitrile]	21
O=C([C@H]1CCc2c(sc3ncnc(Nc4ccn5nccc5c4)c23)C1)N1CC(F)(F)C1 [Example 23, (3,3-Difluoroazetidin-1-yl)[(7S)-4-(pyrazolo[1,5-a]pyridin-5-ylamino)-5,6,7,8-tetrahydro[1]benzothieno[2,3-d]pyrimidin-7-yl]methanone]	23
O=C([C@H]1CCc2c(sc3ncnc(Nc4ccn5nccc5c4)c23)C1)N1CC(O)C1 [Example 24, (3-Hydroxyazetidin-1-yl)[(7S)-4-(pyrazolo[1,5-a]pyridin-5-ylamino)-5,6,7,8-tetrahydro[1]benzothieno[2,3-d]pyrimidin-7-yl]methanone]	20
CN(CCNC(=O)OC(C)(C)C)C(=O)[C@H]1CCc2c(sc3ncnc(Nc4ccn5nccc5c4)c23)C1 [Example 25, tert-Butyl [2-(methyl{[(7S)-4-(pyrazolo[1,5-a]pyridin-5-ylamino)-5,6,7,8-tetrahydro[1]benzothieno[2,3-d]pyrimidin-7-yl]carbonyl}amino)ethyl]carbamate]	13
